The text below walks through data of patent US20170218375A1, “MORPHOLINOS, MORPHOLINO UPREGULATING, AND ASSOCIATED METHODS” (University of Utah Research Foundation, priority 2011, published 2017).

One series deals with mbVEGFR2 mRNA. Description: Real-time PCR of mbVEGFR2 mRNA after morpholino transfection of HUVECs. It counts as cell-based, human. Conditions: GAPDH as internal control, compared with DPBS transfected HUVECs. The source says:
(§1) In addition, two polyadenylation sites (AAUAAA) are found in intron13 (FIG. 1A). […] FIG. 1(a) illustrates a schematic design of anti-sense morpholino oligomers. FIGS. 1(b, c) show the results of mbVEGFR2 and sVEGFR2 mRNA expression quantified by real-time PCR after morpholino transfection. All results are normalized by GAPDH expression and compared with DPBS transfected HUVECs as 1. p: risk factor by two-tail student's t-test. *: p<0.05, **p<0.01, ***p<0.001 compared with DPBS transfected HUVECs; n=6 for all groups; Error bar is ±s.e.m. It is thus concluded that human polyadenylation of sVEGFR2 mRNA occurs in intron13, and thus the present disclosure examines whether disruption of splicing between exon13-exon14 upregulates sVEGFR2.
(§2) It was discovered that VEGFR2_MOe13 downregulates mbVEGFR2 mRNA by 40% (p<0.05), while VEGFR2_MOi13 upregulates mbVEGFR2 mRNA by 2.5-fold (p<0.01) compared with DPBS transfected HUVECs.
(§3) Each morpholino oligomer was purchased from Gene Tools (Philomath, Oreg.). […] The cells were washed three times and fluorescence was detected by a FACScan Analyzer (BD Biosciences, San Jose, Calif.). […]
(§4) cDNAs were synthesized from 400 ng total RNA using Omniscript RT kit (Qiagen, Valencia, Calif.) and Oligo-dT primer(dT20) according to the manufacturer's instructions. Real-time PCR was performed using QuantiTect SYBR Green PCR Kit (Qiagen, Valencia, Calif.) and 1 μl of cDNA. […]
(In qPCR the cycle at which signal appears reflects the starting amount.)

The subject of series [1] is sVEGFR2 mRNA. Description: Real-time PCR of sVEGFR2 mRNA after morpholino transfection of HUVECs. It counts as cell-based, human. The following applies: GAPDH as internal control, compared with DPBS transfected HUVECs, p<0.001.
Source text: as §1, §2, §3, §4

In series [2] the test system is sVEGFR2 mRNA. Description: RT-PCR analysis of sVEGFR2 mRNA from HUVECs two days after morpholino transfection. In kind it is cell-based, human. As for the experimental part:
To limit the possibility of genomic contamination, VEGFR2exon10_F (designed in exon10) and VEGFR2_R (designed in intron13) were used for primers to detect sVEGFR2.
(§5) Each morpholino oligomer was purchased from Gene Tools (Philomath, Oreg.). The sequences of each morpholino oligomer and primers for PCR are listed in supplemental Table. HUVECs (Lonza, Walkersville, Md.) were cultured in EBM with EGM SingleQuot Kit supplements and growth factors according to the manufacturer's instructions (Lonza, Walkersville, Md.). MS-1 cells, a mouse endothelial cell line (ATCC, Manassas, Va.) were cultured in 5% FBS/DMEM. Morpholino oligomers were delivered to the nucleus by nucleofection (Amaxa, Gaithersburg, Md.) with a Basic Nucleofector Kit for Primary Mammalian Endothelial Cells (Amaxa, Gaithersburg, Md.) using program A-034 for HUVEC and MS-1 cells. For each nucleofection, 1×10^6 cells were used and plated on a 6-well plate. After 2 days of culture, cells were trypsinized and total RNA was extracted using a RNeasy mini kit (Qiagen, Valencia, Calif.) with DNaseI treatment. Detection of mbVEGFR2 was achieved by flow cytometry. […] The cells were washed three times and fluorescence was detected by a FACScan Analyzer (BD Biosciences, San Jose, Calif.). […]

For series [3], the system named is mbVEGFR2 protein. Description: Western blot for mbVEGFR2 from morpholino transfected HUVECs. It counts as cell-based, human. Conditions: compared to DPBS and STD_MO. The method, then: (§6) Next, mbVEGFR2 protein expression by western blot was examined. VEGFR2_MOe13 or a combination of VEGFR2_MOe13 and VEGFR2_MOi13 reduced mbVEGFR2 protein expression compared to DPBS and STD_MO. […] (f) HUVECs stained with only secondary antibody were used as a negative control. […] To confirm sVEGFR2 protein expression, western blot from culture medium of morpholino transfected HUVECs was performed using an antibody recognizing the extracellular domains of VEGFR2 (FIG. 5). […] It is known that mbVEGFR2 can be glycosylated, thus increasing the molecular weight from 150 kD to 230 kD. In addition, sVEGFR2 has been detected at 160 kDa, although it has not reported whether this was derived from alternative polyadenylation or proteolytic cleavage from mbVEGFR2. Based on this information, it is likely that sVEGFR2 protein, upregulted following morpholino treatment, is glycosylated with an observed molecular weight of 150 kDa.
(§7) After nucleofection, cells were cultured in a 75 cm^2 flask for three days without changing the medium. After three days the media was collected and cell debris was removed by centrifugation. Trichloroacetic acid (20% (w/v), Fisher Scientific, Pittsburgh, Pa.) was added to concentrate the supernatant (final concentration of trichloroacetic acid was 10%). Cells were incubated in trichloroacetic acid for 30 minutes on ice and then centrifuged at ×12000 g 4° C. for 5 minutes. […]
A general note: In western blotting, separated proteins are transferred to a membrane and probed.

In series [4] the test system is mbVEGFR2 protein. Description: Flow cytometry analysis of mbVEGFR2 protein on cell surfaces of transfected HUVECs. In kind it is cell-based, human. Conditions: flow cytometry three days after nucleofection, DPBS 83.3%. The method, then:
as §6
Each morpholino oligomer was purchased from Gene Tools (Philomath, Oreg.). The sequences of each morpholino oligomer and primers for PCR are listed in supplemental Table. HUVECs (Lonza, Walkersville, Md.) were cultured in EBM with EGM SingleQuot Kit supplements and growth factors according to the manufacturer's instructions (Lonza, Walkersville, Md.). […] The cells were washed three times and fluorescence was detected by a FACScan Analyzer (BD Biosciences, San Jose, Calif.). […]
In general terms: A flow cytometer gives signals particle by particle.

In the next series the test system is sVEGFR2 protein. Description: Western blot of culture medium of morpholino transfected HUVECs against VEGFR2 extracellular domain. It counts as cell-based, human. Conditions: three days, antibody to VEGFR2 extracellular domains. The method, then:
as §6, §7

Series [5] has as its system sVEGFR2 mRNA. Description: Long-range 3'RACE from morpholino transfected HUVECs. In kind it is cell-based, human. The method, then:
To determine the 3′UTR of sVEGFR2 mRNA induced by morpholinos, long-range 3′RACE was performed (FIG. 5C). A strong band (˜1600 bp) was detected from VEGFR2_MOe13 and the combination of VEGFR2_MOe13 and VEGFR2_MOi13 transfected HUVECs. Based on the sequence of this band, sVEGFR2 mRNA utilizes a polyadenylation site located in 1403-1408 nt range of intron13 (FIG. 6B). […] These sequence components are similar to typical polyadenylation signals, which contain a cleavage site 10-35 nt downstream of AAUAAA and a GU-rich region 14-70 nt downstream of AAUAAA. […] Corneal tissue is known to predominantly express sVEGFR2.
cDNA was synthesized from total RNA extracted from morpholino transfected HUVEC using a cloning_R1 (Table 1). PCR was performed using a LongRange PCR Kit (Qiagen, Valencia, Calif.). PCR conditions: 93° C. for 3 minutes, 35 cycles of 93° C. for 15 seconds, 55° C. for 30 seconds and 68° C. for 6 minutes using VEGFR2_F1 and cloning_R2. After 1% agarose gel electrophoresis, specific bands were excised and subjected to DNA sequencing. To determine endogenous 3′UTR of sVEGFR2 mRNA, total RNA extracted from one human cornea which was obtained from the Utah Lions Eye Bank. cDNA was synthesized with the same above method, and PCR was performed using cloning_F(1042-1061) which is designed in human VEGFR2 intron13 and cloning_R2.

The subject of series [6] is laser-induced choroidal neovascularization (CNV). Description: Laser-induced choroidal neovascularization (CNV) in mouse. It counts as in vivo. Conditions: 2 μl intravitreously day 1 and day 4: 100 ng/μl moVEGFR2_MOe13, 500 ng/μl anti-mouse VEGF-A IgG, 2 ng/μl SU1498, CNV volume day 7. As for the experimental part:
It was also examined whether moVEGFR2_MOe13 inhibits laser-induced choroidal neovascularization (CNV). Each morpholino or DPBS was injected intravitreously on day 1 and day 4 after laser photocoagulation, and laser CNV volumes were examined on day 7. […] Vessel endothelial cells were stained with Alexa fluor488 conjugated isolectin GS-IB4. […] After photocoagulation, on day 1 and day 4, 2 ul of 100 ng/μl STD_MO, 500 ng/μl Goat IgG (AB-108-C, R&D Systems, Minneapolis, Minn.), 100 ng/μl moVEGFR2_MOe13, 500 ng/μl Goat Anti-mouse VEGF-A IgG (AF-493-NA, R&D Systems, Minneapolis, Minn.) or 2 ng/μl SU1498 (572888, EMD chemicals, Gibbstown, N.J.) was injected intravitreously. On day 7, CNV volumes were measured by confocal microscope. n=14-20 for each group. Risk factors (p-value) were calculated by two-tail student's t-test (*: p<0.05, **p<0.01). Error bar is ±s.e.m.
as §5

With “5′-gatccagaattgtctccctacCTAG-3′ (antisense GATCCAGAATTGTCTCCCTACCTAG; all phosphorodiamidate morpholino (PMO)) [VEGFR2_MOe13, antisense morpholino oligomer corresponding to the junction of exon13-intron13 of human VEGFR2]”, the “downregulation of mbVEGFR2 mRNA” value in the series with mbVEGFR2 mRNA (p<0.05) is given as 40%. The “increase of sVEGFR2 mRNA” value in the series on sVEGFR2 mRNA [1] came out at 17 fold. Also, the “detection of sVEGFR2 mRNA by RT-PCR” value with sVEGFR2 mRNA [2] is on record as “detected”. Also, the “mbVEGFR2 protein expression by western blot” value with mbVEGFR2 protein [3] was “reduced”. In addition, in the series on mbVEGFR2 protein [4], the mbVEGFR2 positive cells was found to be 40.7%. Further, the “sVEGFR2 protein in culture medium by western blot” value with sVEGFR2 protein is 150 kD bands were detected. In the series on sVEGFR2 mRNA [5], the “3'RACE band (~1600 bp) corresponding to sVEGFR2 mRNA using the polyadenylation site in intron13” value is “strong band”.
“5′-CCACACGCTctagacacacaaaaag-3′ (antisense CCACACGCTCTAGACACACAAAAAG; all phosphorodiamidate morpholino (PMO)) [VEGFR2_MOi13, antisense morpholino oligomer corresponding to the junction of intron13-exon14 of human VEGFR2]”: the “upregulation of mbVEGFR2 mRNA” value in the series with mbVEGFR2 mRNA (p<0.01) is recorded as 2.5 fold. Moreover, in the series with sVEGFR2 mRNA [1], the “increase of sVEGFR2 mRNA” value is reported as 4.4 fold. Also, the “detection of sVEGFR2 mRNA by RT-PCR” value in the series with sVEGFR2 mRNA [2] was “detected”. Also, the mbVEGFR2 positive cells in the series with mbVEGFR2 protein [4] amounted to 82.5%. In addition, the “sVEGFR2 protein in culture medium by western blot” value with sVEGFR2 protein was “could not detect”. For the same molecule, in the series on sVEGFR2 mRNA [5], the “3'RACE band (~1600 bp) corresponding to sVEGFR2 mRNA using the polyadenylation site in intron13” value is “did not show a strong band”.
Consider `CC(C)c1cc(/C=C(\C#N)C(=O)NCCCc2ccccc2)cc(C(C)C)c1O` [SU1498, reference compound], for which, in series [6], the “suppression of CNV compared with anti-VEGF-A IgG and SU1498 (FIG. 9)” value is listed as “inhibitory effects”.
